Data from patent US9540343B2 (Gilead Sciences, Inc., priority 2011, dated 2017).

Tests used:
in vitro = conditions: human, uninfected MT-4 cells, CC50 (nM), same protocol as Test A, CellTiter-Glo
Summary of the method: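 Cytoprotection read-out: CellTiter-Glo chemiluminescence after 5 days at 37 °C of HIV-IIIb-infected MT-4 cells (m.o.i. 0.003) with compound in 10-point 3-fold dilutions, quadruplicate, 10% FBS. Cytotoxicity (CC50) measured identically without virus.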

HIV-IIIb = experiment: Test A: Antiviral assay in MT4 cells; format: cell-based, HIV-1; conditions: Human immunodeficiency virus 1, IIIB, MT4, 120 h, read-out: % inhibition at 2 μM, percent inhibition of virus-induced cell killing, from dose response curve at 2 uM drug; MT-4 cells infected with HIV-IIIb, 5 days, CellTiter-Glo

Row | SMILES | CC50 at 5 days (in vitro) [nM] | inhibition at 2 µM (HIV-IIIb) [%]
1 | NC(=O)c1cccc(-c2cccnc2[C@H](Cc2cc(F)cc(F)c2)NC(=O)Cc2c[nH]c3ccccc23)c1 [Example 480, (S)-3-(2-(1-(2-(1H-indol-3-yl)acetamido)-2-(3,5-difluorophenyl)ethyl)pyridin-3-yl)benzamide] | 27800 | 93
2 | O=C(Cn1nc(C(F)(F)F)c2c1CCCC2)NC(Cc1cc(F)cc(F)c1)c1nccnc1-c1ccc(Cl)cc1 (centres unmarked) [Example 474, N-(1-(3-(4-chlorophenyl)pyrazin-2-yl)-2-(3,5-difluorophenyl)ethyl)-2-(3-(trifluoromethyl)-4,5,6,7-tetrahydro-1H-indazol-1-yl)acetamide] | 9980 | 17
3 | NCc1ccc2c(CC(=O)N[C@@H](Cc3cc(F)cc(F)c3)c3ncccc3-c3ccc(Cl)cc3)c[nH]c2c1 [Example 549, (S)-2-(6-(aminomethyl)-1H-indol-3-yl)-N-(1-(3-(4-chlorophenyl)pyridin-2-yl)-2-(3,5-difluorophenyl)ethyl)acetamide] | 10200 | 38
4 | NC(=O)c1cc(-c2cccnc2[C@H](Cc2cc(F)cc(F)c2)NC(=O)Cn2nc(C(F)(F)F)c3c2COC3)ccc1F [Example 258, (S)-5-(2-(2-(3,5-difluorophenyl)-1-(2-(3-(trifluoromethyl)-4,6-dihydro-1H-furo[3,4-c]pyrazol-1-yl)acetamido)ethyl)pyridin-3-yl)-2-fluorobenzamide] | > 53200 | 8
5 | CNCc1cn(CC(=O)N[C@@H](Cc2cc(F)cc(F)c2)c2ncccc2-c2ccc(F)c(C(N)=O)c2)nc1C(F)(F)F [Example 333, (S)-5-(2-(2-(3,5-difluorophenyl)-1-(2-(4-((methylamino)methyl)-3-(trifluoromethyl)-1H-pyrazol-1-yl)acetamido)ethyl)pyridin-3-yl)-2-fluorobenzamide] | > 53200 | 2
6 | COc1ccc2c(c1)NC(=O)C2CC(=O)N[C@@H](Cc1cc(F)cc(F)c1)c1ncccc1-c1ccc(F)c(C(N)=O)c1 (stereo partly drawn) [Example 256, 5-(2-((1S)-2-(3,5-difluorophenyl)-1-(2-(6-methoxy-2-oxoindolin-3-yl)acetamido)ethyl)pyridin-3-yl)-2-fluorobenzamide] | > 53200 | 15
7 | Cc1cnc([C@H](Cc2cc(F)cc(F)c2)NC(=O)Cc2c[nH]c3ccc(O)cc23)c(-c2ccc(F)c(C(N)=O)c2)c1 [Example 262G, (S)-5-(2-(2-(3,5-difluorophenyl)-1-(2-(5-hydroxy-1H-indol-3-yl)acetamido)ethyl)-5-methylpyridin-3-yl)-2-fluorobenzamide] | > 51200 | 109
8 | NC(=O)c1cc(-c2cccnc2[C@H](Cc2cc(F)cc(F)c2)NC(=O)Cn2nc(C(F)F)cc2C2CC2)ccc1F [Example 317, (S)-5-(2-(1-(2-(5-cyclopropyl-3-(difluoromethyl)-1H-pyrazol-1-yl)acetamido)-2-(3,5-difluorophenyl)ethyl)pyridin-3-yl)-2-fluorobenzamide] | > 47600 | 41
9 | CC(C)(C)OC(=O)N1C[C@@H](c2ccccc2)C[C@H]1C(=O)N[C@@H](Cc1cc(F)cc(F)c1)c1ncccc1-c1ccc(F)c(C(N)=O)c1 [Example 148, (2S,4R)-tert-butyl 2-((S)-1-(3-(3-carbamoyl-4-fluorophenyl)pyridin-2-yl)-2-(3,5-difluorophenyl)ethylcarbamoyl)-4-phenylpyrrolidine-1-carboxylate] | 12300 | 11
10 | NC(=O)c1cc(-c2cccnc2[C@H](Cc2cc(F)cc(F)c2)NC(=O)Cn2cc(C=O)c(C(F)(F)F)n2)ccc1F [Example 296, (S)-5-(2-(2-(3,5-difluorophenyl)-1-(2-(4-formyl-3-(trifluoromethyl)-1H-pyrazol-1-yl)acetamido)ethyl)pyridin-3-yl)-2-fluorobenzamide] | 10800 | 96
11 | O=C(Cc1c[nH]c2ccc(F)cc12)N[C@@H](Cc1cc(F)cc(F)c1)c1ncncc1-c1ccc(Cl)cc1 [Example 365, (S)—N-(1-(5-(4-chlorophenyl)pyrimidin-4-yl)-2-(3,5-difluorophenyl)ethyl)-2-(5-fluoro-1H-indol-3-yl)acetamide] | 12500 | 86
12 | CNC(=O)c1ccc(-c2cccnc2[C@H](Cc2cc(F)cc(F)c2)NC(=O)Cc2c[nH]c3ccc(F)cc23)cc1Cl [Example 405, (S)-2-chloro-4-(2-(2-(3,5-difluorophenyl)-1-(2-(5-fluoro-1H-indol-3-yl)acetamido)ethyl)pyridin-3-yl)-N-methylbenzamide] | 21100 | 11
13 | NC(=O)c1cc(-c2cccnc2[C@H](Cc2cc(F)cc(F)c2)NC(=O)Cc2cccc3ccccc23)ccc1F [Example 214, (S)-5-(2-(2-(3,5-difluorophenyl)-1-(2-(naphthalen-1-yl)acetamido)ethyl)pyridin-3-yl)-2-fluorobenzamide] | 22200 | 8
14 | Cc1ccc2c(c1C)NC(=O)C2CC(=O)N[C@@H](Cc1cc(F)cc(F)c1)c1ncccc1-c1ccc(F)c(C(N)=O)c1 (stereo partly drawn) [Example 221, 5-(2-((1S)-2-(3,5-difluorophenyl)-1-(2-(6,7-dimethyl-2-oxoindolin-3-yl)acetamido)ethyl)pyridin-3-yl)-2-fluorobenzamide] | 40500 | 1
15 | COc1ccc(-c2cccnc2[C@@H](Cc2ccccc2)NC(=O)Cc2c[nH]c3ccc(O)cc23)cc1 [Example 22, (R)-2-(5-hydroxy-1H-indol-3-yl)-N-(1-(3-(4-methoxyphenyl)pyridin-2-yl)-2-phenylethyl)acetamide] | 45700 | 0
16 | Cn1cc(-c2cccnc2[C@H](Cc2cc(F)cc(F)c2)NC(=O)Cc2c[nH]c3ccc(F)cc23)cn1 [Example 440, (S)—N-(2-(3,5-difluorophenyl)-1-(3-(1-methyl-1H-pyrazol-4-yl)pyridin-2-yl)ethyl)-2-(5-fluoro-1H-indol-3-yl)acetamide] | 21700 | 82
17 | Cc1cc2c(ccn2CC(=O)N[C@@H](Cc2cc(F)cc(F)c2)c2ncccc2-c2ccc(F)c(C(N)=O)c2)cn1 [Example 522, (S)-5-(2-(2-(3,5-difluorophenyl)-1-(2-(6-methyl-1H-pyrrolo[3,2-c]pyridin-1-yl)acetamido)ethyl)pyridin-3-yl)-2-fluorobenzamide] | 47900 | 4
18 | Cc1ccc(C)c2c1NC(=O)C2CC(=O)N[C@@H](Cc1cc(F)cc(F)c1)c1ncccc1-c1ccc(F)c(C(N)=O)c1 (stereo partly drawn) [Example 259, 5-(2-((1S)-2-(3,5-difluorophenyl)-1-(2-(4,7-dimethyl-2-oxoindolin-3-yl)acetamido)ethyl)pyridin-3-yl)-2-fluorobenzamide] | 47600 | 2
19 | O=C(Cn1nc(C(F)(F)F)c2c1CCCC2)N[C@@H](Cc1cc(F)cc(F)c1)c1ncccc1-c1cccc(C(=O)N2CCOCC2)c1 [Example 424, (S)—N-(2-(3,5-difluorophenyl)-1-(3-(3-(morpholine-4-carbonyl)phenyl)pyridin-2-yl)ethyl)-2-(3-(trifluoromethyl)-4,5,6,7-tetrahydro-1H-indazol-1-yl)acetamide] | 14200 | 78
20 | O=C(Cn1nc(C(F)F)c2c1C(F)(F)C1CC21)N[C@@H](Cc1cc(F)cc(F)c1)c1ncncc1-c1ccc2cccnc2c1 (stereo partly drawn) [Example 124C, 2-(3-(difluoromethyl)-5,5-difluoro-3b,4,4a,5-tetrahydro-1H-cyclopropa[3,4]cyclopenta[1,2-c]pyrazol-1-yl)-N—((S)-2-(3,5-difluorophenyl)-1-(5-(quinolin-7-yl)pyrimidin-4-yl)ethyl)acetamide] | 20200 | 77
21 | NC(=O)c1cc(-c2cccnc2[C@H](Cc2cc(F)cc(F)c2)NC(=O)Cn2c(=O)n(C3=CCCCC3)c3ccccc32)ccc1F [Example 567, (S)-5-(2-(1-(2-(3-cyclohexenyl-2-oxo-2,3-dihydro-1H-benzo[d]imidazol-1-yl)acetamido)-2-(3,5-difluorophenyl)ethyl)pyridin-3-yl)-2-fluorobenzamide] | 15800 | 11
22 | CC(C)(C)OC(=O)NCc1ccc2c(CC(=O)N[C@@H](Cc3cc(F)cc(F)c3)c3ncccc3-c3ccc(Cl)cc3)c[nH]c2c1 [Example 526, (S)-tert-butyl (3-(2-(1-(3-(4-chlorophenyl)pyridin-2-yl)-2-(3,5-difluorophenyl)ethylamino)-2-oxoethyl)-1H-indol-6-yl)methylcarbamate] | 10000 | 50
23 | NC(=O)c1cc(-c2cccnc2[C@H](Cc2cc(F)cc(F)c2)NC(=O)C2CCCN2Cc2ccccc2)ccc1F (stereo partly drawn) [Example 166, 1-benzyl-N—((S)-1-(3-(3-carbamoyl-4-fluorophenyl)pyridin-2-yl)-2-(3,5-difluorophenyl)ethyl)pyrrolidine-2-carboxamide] | 6360 | 0
24 | Cc1cc2ccccc2n1CC(=O)N[C@@H](Cc1cc(F)cc(F)c1)c1ncccc1-c1ccc(F)c(C(N)=O)c1 [Example 367, (S)-5-(2-(2-(3,5-difluorophenyl)-1-(2-(2-methyl-1H-indol-1-yl)acetamido)ethyl)pyridin-3-yl)-2-fluorobenzamide] | 13400 | 20
25 | Cc1cccc2[nH]cc(CC(=O)N[C@@H](Cc3cc(F)cc(F)c3)c3ncccc3-c3ccc(Cl)cc3)c12 [Example 534, (S)—N-(1-(3-(4-chlorophenyl)pyridin-2-yl)-2-(3,5-difluorophenyl)ethyl)-2-(4-methyl-1H-indol-3-yl)acetamide] | 9820 | 29
